According to patent US20170321285A1, “NLRC5 AS A BIOMARKER FOR CANCER PATIENTS AND A TARGET FOR CANCER THERAPY” (THE TEXAS A&M UNIVERSITY SYSTEM, priority 2016, published 2017):

System: hla-b promoter
Test: hla-b promoter dual-luciferase reporter assay with nlrc5 mutant plasmids in HEK293T cells
Type: cell-based, human
Conditions: 100 ng mutant plasmid with HLA-B250 luciferase reporter, 48 h post-transfection (FIG. 3H)
From the text: FIGS. 3A-3J. Copy number loss and somatic mutations in nlrc5 are associated with reduced MHC class I gene expressions. FIG. 3A. Percentage of cancer patients who carry nlrc5 copy number (CN) loss among 20 TCGA tumor types. Based on GISTIC values, samples were classified into nlrc5 diploid group and CN loss group: GISTIC 0, diploid; −1 and −2, CN loss. FIG. 3B. Percentage of cancer patients who carry copy number (CN) loss of various MHC class I-related genes for 10 TCGA tumor types for which data are available (bladder, breast, colon, head/neck, lung adeno, lung squamous, ovarian, prostate, rectal and uterine cancer, top) and ovarian cancer (bottom). Statistical significance was determined by chi-square test. *: p<0.01, **: p<0.0001. FIG. 3C. Heatmap showing gene expression of nlrc5 and hla-b in nlrc5 diploid group (n=2028) or CN loss group (n=890) for 17 TCGA tumor types in which the nlrc5 promoter is not methylated. FIG. 3D. The box plots showing nlrc5 and MHC class I-related gene expression in the nlrc5 diploid group or CN loss group in breast cancer patients. FIG. 3E. Pie chart representing the percentage distribution of different types of mutations in nlrc5 in various cancer patients (n=7752). FIG. 3F. Mutation rate in 20 TCGA tumor types. FIG. 3G. Representation of nlrc5 indicating 13 mutations found in at least 2 different cancer patients. FIG. 3H. HEK293T cells were co-transfected with either empty control vector or the respective nlrc5 mutant plasmid with hla-b reporter plasmid and hla-b promoter activity was assessed by the dual-luciferase assay and normalized against Renilla […] activity. Data are representative of two independent experiments performed in duplicate and is plotted as fold induction with respect to the control vector. Error bar: ±sd. FIG. 3I. […] FIG. 3J. Box plots for the expression level of MHC class I-related genes normalized by the expression level of nlrc5 in 20 TCGA tumor types that are either nlrc5 wild-type or nlrc5 mutant. FIGS. 3D-3J. The horizontal line corresponds to the median, the box to the 25th-75th percentile and the lines to the confidence interval (5th-95th percentile).
The expression vector for human gfp-nlrc5 in pcDNA3.1 was previously described. The reporter gene construct used for MHC class I promoter activity (HLA-B250) was also previously described. Selected nlrc5 mutants were constructed using pcDNA3.1-gfp-nlrc5 by site-directed mutagenesis using the primers listed in Table 3. All the plasmids were confirmed by sequencing (Gene Technologies Laboratory).
HEK293T cells were cultured in DMEM supplemented with 10% FBS and penicillin/streptomycin (Life Technologies) at 37° C. with 5% CO2. Cells were transiently transfected using polyethylenimine at a DNA/polyethylenimine ratio of 1:3 in serum-free media. For luciferase assay, HEK293T cells were split at a density of 5×10^4 cells/well into 24-well plates 1 day prior to transfection. Cells were co-transfected using 100 ng of gfp-nlrc5 or 100 ng of the specified nlrc5 mutant plasmids along with 100 ng of HLA-B250 luciferase reporter construct. 20 ng promoterless Renilla luciferase vector (pRL-null; Promega) were included for normalization of transfection efficiency. Cells were harvested 48 h post-transfection, and cell lysates were analyzed using the Dual-Luciferase Reporter Assay System (Promega) according to the manufacturer's instructions.

Question: “S496F: NLRC5 protein mutant found in cancer patients, expressed from gfp-nlrc5 vector made by site-directed mutagenesis” was tested. Which “activity of the NLRC5 protein as compared to the wild-type NLRC5 protein (induction of hla-b promoter activity)” value did it give?
Answer: does not reduce or increases the activity

Question: How did the “activity of the NLRC5 protein as compared to the wild-type NLRC5 protein (induction of hla-b promoter activity)” value turn out when “R550W: NLRC5 protein mutant found in cancer patients, expressed from gfp-nlrc5 vector made by site-directed mutagenesis” was run?
Answer: reduces the activity

Question: Which “activity of the NLRC5 protein as compared to the wild-type NLRC5 protein (induction of hla-b promoter activity)” value does the source give for “A1512T: NLRC5 protein mutant found in cancer patients, expressed from gfp-nlrc5 vector made by site-directed mutagenesis” here?
Answer: does not reduce or increases the activity

Question: How did the “activity of the NLRC5 protein as compared to the wild-type NLRC5 protein (induction of hla-b promoter activity)” value turn out when “T1173M: NLRC5 protein mutant found in cancer patients, expressed from gfp-nlrc5 vector made by site-directed mutagenesis” was run?
Answer: does not reduce or increases the activity

Question: How did the “activity of the NLRC5 protein as compared to the wild-type NLRC5 protein (induction of hla-b promoter activity)” value turn out when “Q1847*: NLRC5 nonsense mutant found in cancer patients, expressed from gfp-nlrc5 vector made by site-directed mutagenesis” was run?
Answer: reduces the activity

Question: Which “activity of the NLRC5 protein as compared to the wild-type NLRC5 protein (induction of hla-b promoter activity)” value does the source give for “R574H: NLRC5 protein mutant found in cancer patients, expressed from gfp-nlrc5 vector made by site-directed mutagenesis” here?
Answer: does not reduce or increases the activity

Question: For “A737D: NLRC5 protein mutant found in cancer patients, expressed from gfp-nlrc5 vector made by site-directed mutagenesis”, which “activity of the NLRC5 protein as compared to the wild-type NLRC5 protein (induction of hla-b promoter activity)” value is on record?
Answer: reduces the activity

Question: “R262C: NLRC5 protein mutant found in cancer patients, expressed from gfp-nlrc5 vector made by site-directed mutagenesis” was tested. Which “activity of the NLRC5 protein as compared to the wild-type NLRC5 protein (induction of hla-b promoter activity)” value did it give?
Answer: reduces the activity

Question: Which “activity of the NLRC5 protein as compared to the wild-type NLRC5 protein (induction of hla-b promoter activity)” value does the source give for “D884N: NLRC5 protein mutant found in cancer patients, expressed from gfp-nlrc5 vector made by site-directed mutagenesis” here?
Answer: does not reduce or increases the activity

Question: With “R1830C: NLRC5 protein mutant found in cancer patients, expressed from gfp-nlrc5 vector made by site-directed mutagenesis” as the molecule, how does the “activity of the NLRC5 protein as compared to the wild-type NLRC5 protein (induction of hla-b promoter activity)” value read?
Answer: reduces the activity

Question: For “L181P: NLRC5 protein mutant found in cancer patients, expressed from gfp-nlrc5 vector made by site-directed mutagenesis”, which “activity of the NLRC5 protein as compared to the wild-type NLRC5 protein (induction of hla-b promoter activity)” value is on record?
Answer: reduces the activity

Question: For “R386W: NLRC5 protein mutant found in cancer patients, expressed from gfp-nlrc5 vector made by site-directed mutagenesis”, which “activity of the NLRC5 protein as compared to the wild-type NLRC5 protein (induction of hla-b promoter activity)” value is on record?
Answer: does not reduce or increases the activity

System: cancer cell lines
Test: not given
Conditions: 3 μM 5-azacytidine, various cancer cell lines, qPCR (FIG. 2A)

Question: Nc1ncn([C@@H]2O[C@H](CO)[C@@H](O)[C@H]2O)c(=O)n1 [5-Azacitidine, 4-amino-1-β-D-ribofuranosyl-1,3,5-triazin-2(1H)-one] was tested. Which expression of hla-b did it give?
Answer: upregulation

Question: And the “expression of nlrc5” value?
Answer: upregulation
